# Data taken from PubChem BioAssay (NCI).
#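 Compound exposure: 48 hours, 5 concentrations, 96-well plates. Abbreviation: GI50, concentration required for 50% inhibition of growth. TGI is the concentration that stops growth completely.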
# Legend:
# Test in all cases: DTP human tumour cell line panel, 48 h
# 786-0 renal = tested on: 786-0 renal
# A498 renal = tested on: A498 renal
# A549 NSCLC = tested on: A549 NSCLC
# ACHN renal = tested on: ACHN renal
# BT-549 breast = tested on: BT-549 breast
# CCRF-CEM leukemia = tested on: CCRF-CEM leukemia
# COLO 205 colon = tested on: COLO 205 colon
# DU-145 prostate = tested on: DU-145 prostate
# EKVX NSCLC = tested on: EKVX NSCLC
# HCC-2998 colon = tested on: HCC-2998 colon
# HCT-15 colon = tested on: HCT-15 colon
# HL-60(TB) leukemia = tested on: HL-60(TB) leukemia
# HOP-62 NSCLC = tested on: HOP-62 NSCLC
# HOP-92 NSCLC = tested on: HOP-92 NSCLC
# HS 578T breast = tested on: HS 578T breast
# HT29 colon = tested on: HT29 colon
# IGROV1 ovarian = tested on: IGROV1 ovarian
# K-562 leukemia = tested on: K-562 leukemia
# KM12 colon = tested on: KM12 colon
# LOX IMVI melanoma = tested on: LOX IMVI melanoma
# M14 melanoma = tested on: M14 melanoma
# MALME-3M melanoma = tested on: MALME-3M melanoma
# MDA-MB-231 breast = tested on: MDA-MB-231 breast
# MDA-MB-435 = tested on: MDA-MB-435
# MOLT-4 leukemia = tested on: MOLT-4 leukemia
# NCI-H226 lung = tested on: NCI-H226 lung
# NCI-H23 lung = tested on: NCI-H23 lung
# NCI-H460 lung = tested on: NCI-H460 lung
# NCI-H522 lung = tested on: NCI-H522 lung
# NCI/ADR-RES ovarian = tested on: NCI/ADR-RES ovarian
# OVCAR-3 ovarian = tested on: OVCAR-3 ovarian
# OVCAR-4 ovarian = tested on: OVCAR-4 ovarian
# OVCAR-5 ovarian = tested on: OVCAR-5 ovarian
# OVCAR-8 ovarian = tested on: OVCAR-8 ovarian
# PC-3 prostate = tested on: PC-3 prostate
# RPMI-8226 leukemia = tested on: RPMI-8226 leukemia
# RXF 393 renal = tested on: RXF 393 renal
# SF-268 CNS = tested on: SF-268 CNS
# SF-295 CNS = tested on: SF-295 CNS
# SF-539 CNS = tested on: SF-539 CNS
# SK-MEL-2 melanoma = tested on: SK-MEL-2 melanoma
# SK-MEL-28 melanoma = tested on: SK-MEL-28 melanoma
# SK-MEL-5 melanoma = tested on: SK-MEL-5 melanoma
# SK-OV-3 ovarian = tested on: SK-OV-3 ovarian
# SN12C renal = tested on: SN12C renal
# SNB-19 CNS = tested on: SNB-19 CNS
# SNB-75 CNS = tested on: SNB-75 CNS
# SR leukemia = tested on: SR leukemia
# SW-620 colon = tested on: SW-620 colon
# T-47D breast = tested on: T-47D breast
# TK-10 renal = tested on: TK-10 renal
# U251 CNS = tested on: U251 CNS
# UACC-257 melanoma = tested on: UACC-257 melanoma
# UACC-62 melanoma = tested on: UACC-62 melanoma
# UO-31 renal = tested on: UO-31 renal
compound,measurement,setting,value
[2H]c1nc(C)nc([2H])c1-c1cc(NC[C@@H](C)c2cccc3c(C(=O)NC)ccnc23)ncn1,GI50,786-0 renal,> 100 µM
same,TGI,786-0 renal,> 100 µM
same,GI50,A498 renal,> 100 µM
same,TGI,A498 renal,> 100 µM
same,GI50,A549 NSCLC,> 100 µM
same,TGI,A549 NSCLC,> 100 µM
same,GI50,ACHN renal,> 100 µM
same,TGI,ACHN renal,> 100 µM
same,GI50,BT-549 breast,> 100 µM
same,TGI,BT-549 breast,> 100 µM
same,GI50,CCRF-CEM leukemia,65.1 µM
same,TGI,CCRF-CEM leukemia,> 100 µM
same,GI50,COLO 205 colon,> 100 µM
same,TGI,COLO 205 colon,> 100 µM
same,GI50,DU-145 prostate,> 100 µM
same,TGI,DU-145 prostate,> 100 µM
same,GI50,EKVX NSCLC,> 100 µM
same,TGI,EKVX NSCLC,> 100 µM
same,GI50,HCC-2998 colon,> 100 µM
same,TGI,HCC-2998 colon,> 100 µM
same,GI50,HCT-15 colon,> 100 µM
same,TGI,HCT-15 colon,> 100 µM
same,GI50,HL-60(TB) leukemia,> 100 µM
same,TGI,HL-60(TB) leukemia,> 100 µM
same,GI50,HOP-62 NSCLC,> 100 µM
same,TGI,HOP-62 NSCLC,> 100 µM
same,GI50,HOP-92 NSCLC,> 100 µM
same,TGI,HOP-92 NSCLC,> 100 µM
same,GI50,HS 578T breast,> 100 µM
same,TGI,HS 578T breast,> 100 µM
same,GI50,HT29 colon,> 100 µM
same,TGI,HT29 colon,> 100 µM
same,GI50,IGROV1 ovarian,> 100 µM
same,TGI,IGROV1 ovarian,> 100 µM
same,GI50,K-562 leukemia,80.6 µM
same,TGI,K-562 leukemia,> 100 µM
same,GI50,KM12 colon,> 100 µM
same,TGI,KM12 colon,> 100 µM
same,GI50,LOX IMVI melanoma,> 100 µM
same,TGI,LOX IMVI melanoma,> 100 µM
same,GI50,M14 melanoma,> 100 µM
same,TGI,M14 melanoma,> 100 µM
same,GI50,MALME-3M melanoma,> 100 µM
same,TGI,MALME-3M melanoma,> 100 µM
same,GI50,MDA-MB-231 breast,> 100 µM
same,TGI,MDA-MB-231 breast,> 100 µM
same,GI50,MDA-MB-435,32.7 µM
same,TGI,MDA-MB-435,> 100 µM
same,GI50,MOLT-4 leukemia,> 100 µM
same,TGI,MOLT-4 leukemia,> 100 µM
same,GI50,NCI-H226 lung,> 100 µM
same,TGI,NCI-H226 lung,> 100 µM
same,GI50,NCI-H23 lung,> 100 µM
same,TGI,NCI-H23 lung,> 100 µM
same,GI50,NCI-H460 lung,> 100 µM
same,TGI,NCI-H460 lung,> 100 µM
same,GI50,NCI-H522 lung,46.4 µM
same,TGI,NCI-H522 lung,> 100 µM
same,GI50,NCI/ADR-RES ovarian,> 100 µM
same,TGI,NCI/ADR-RES ovarian,> 100 µM
same,GI50,OVCAR-3 ovarian,> 100 µM
same,TGI,OVCAR-3 ovarian,> 100 µM
same,GI50,OVCAR-4 ovarian,> 100 µM
same,TGI,OVCAR-4 ovarian,> 100 µM
same,GI50,OVCAR-5 ovarian,> 100 µM
same,TGI,OVCAR-5 ovarian,> 100 µM
same,GI50,OVCAR-8 ovarian,> 100 µM
same,TGI,OVCAR-8 ovarian,> 100 µM
same,GI50,PC-3 prostate,> 100 µM
same,TGI,PC-3 prostate,> 100 µM
same,GI50,RPMI-8226 leukemia,78.5 µM
same,TGI,RPMI-8226 leukemia,> 100 µM
same,GI50,RXF 393 renal,> 100 µM
same,TGI,RXF 393 renal,> 100 µM
same,GI50,SF-268 CNS,> 100 µM
same,TGI,SF-268 CNS,> 100 µM
same,GI50,SF-295 CNS,> 100 µM
same,TGI,SF-295 CNS,> 100 µM
same,GI50,SF-539 CNS,> 100 µM
same,TGI,SF-539 CNS,> 100 µM
same,GI50,SK-MEL-2 melanoma,> 100 µM
same,TGI,SK-MEL-2 melanoma,> 100 µM
same,GI50,SK-MEL-28 melanoma,> 100 µM
same,TGI,SK-MEL-28 melanoma,> 100 µM
same,GI50,SK-MEL-5 melanoma,60.1 µM
same,TGI,SK-MEL-5 melanoma,> 100 µM
same,GI50,SK-OV-3 ovarian,> 100 µM
same,TGI,SK-OV-3 ovarian,> 100 µM
same,GI50,SN12C renal,> 100 µM
same,TGI,SN12C renal,> 100 µM
same,GI50,SNB-19 CNS,> 100 µM
same,TGI,SNB-19 CNS,> 100 µM
same,GI50,SNB-75 CNS,> 100 µM
same,TGI,SNB-75 CNS,> 100 µM
same,GI50,SR leukemia,63.1 µM
same,TGI,SR leukemia,> 100 µM
same,GI50,SW-620 colon,> 100 µM
same,TGI,SW-620 colon,> 100 µM
same,GI50,T-47D breast,29 µM
same,TGI,T-47D breast,> 100 µM
same,GI50,TK-10 renal,> 100 µM
same,TGI,TK-10 renal,> 100 µM
same,GI50,U251 CNS,> 100 µM
same,TGI,U251 CNS,> 100 µM
same,GI50,UACC-257 melanoma,> 100 µM
same,TGI,UACC-257 melanoma,> 100 µM
same,GI50,UACC-62 melanoma,90.9 µM
same,TGI,UACC-62 melanoma,> 100 µM
same,GI50,UO-31 renal,> 100 µM
same,TGI,UO-31 renal,> 100 µM
